Data on two molecules can be found in US20080306133A1, “INTRANASAL ADMINISTRATION OF ASENAPINE AND PHARMACEUTICAL COMPOSITIONS THEREFOR” (priority 2007, published 2008).

For series [1] the following is noted: oral dosage form; cited from earlier work.
For series [2] the following is noted: 10 mg/day (5 mg twice daily); randomised, double-blind, placebo-controlled trials; cited from earlier work.
The nature of a further series: Solubility in water. Type of series: physicochemical. The note with it: pH of about 4.0 to about 5.0.

Counter-ions that a name gives are not always drawn.

The bioavailability is the share of a dose that reaches the circulation, judged against a reference dose that is usually intravenous. `CN1C[C@@H]2c3ccccc3Oc3ccc(Cl)cc3[C@H]2C1` (relative stereo) [Asenapine, trans-5-chloro-2-methyl-2,3,3a,12b-tetrahydro-1H-dibenz[2,3:6,7]oxepino[4,5-c]pyrrole]: in series [1], the bioavailability was less than 1%. In series [2], the “efficacy in the treatment of schizophrenia as assessed by the Positive and Negative Symptoms Scale (PANSS)” value is “effective”.

The solubility is how much of the substance goes into solution per volume. In turn, `CN1CC2c3ccccc3Oc3ccc(Cl)cc3C2C1` (stereo not drawn) [Asenapine maleate] gave a solubility in the series “Solubility in water” of roughly 10000 µg/mL.
